One data set relates to IL-2. The data set can be described thus: Stimulation of IL-2 secretion in anti-CD3-stimulated hPBMC (ELISA). The data set is classed as cell-based, human. The following applies: Homo sapiens, anti-CD3 antibody, 72 hours. As to the method: The immunomodulatory function of the compound of the present invention was evaluated by detecting its effect on the secretion amount of TNFα and IL-2 in cells from the human peripheral blood mononuclear cells (hPBMC) by the enzyme linked immunosorbent assay (ELISA) method.
The peripheral blood of healthy volunteers was collected by using EDTA anticoagulant tubes, and diluted with phosphate buffered saline (PBS) containing 2% fetal bovine serum (Gibco, Cat. No. 10099-141) in an equal volume ratio. 30 mL of the resulting diluted sample was transferred into a Sepmate-50 centrifuge tube (Stemcell, Cat. No. 86450) to which 15 mL of a density-gradient centrifugation liquid (Sigma, Cat. No. 10771) had been added in advance, and centrifuged at room temperature at 1200×g for 10 minutes. The liquid containing PBMC in the upper layer was transferred to a new 50-mL centrifuge tube, and centrifuged at room temperature at 300×g for 8 minutes. The supernatant was discarded, and the resulting PBMC was resuspended to 5×10^6/mL by using RPMI 1640 medium (Gibco, Cat. No. 72400-047). 80 μL of the resulting suspension was added to each well in a 96-well plate.
Each concentration was further diluted 50-fold with RPMI 1640 medium. 10 μL of each compound solution was added into the cells in the above 96-well plate. The 96-well plate was placed in an incubator, and the cells were cultured at 37° C. and 5% CO2 for 1 hour. 10 μL of LPS (Sigma, Cat. No. L-2880) with a concentration of 100 ng/mL was added, and the cells were continuously cultured in the incubator at 37° C. and 5% CO2 overnight. Supernatants were collected for the detection of TNFα.
The above-mentioned 96-well plate can also be placed in an incubator, and the cells were cultured at 37° C. and 5% CO2 for 1 hour. 10 μL of anti-CD3 antibody (Thermo Fisher, Cat. No. 14-0037-82) with a concentration of 500 ng/mL was added, and the cells were continuously cultured in the incubator at 37° C. and 5% CO2 for 72 hours. Supernatants were collected for the detection of IL-2.
TNFα and IL-2 were detected respectively according to each instruction of the ELISA kits (R&D, Cat. No. DY210 and DY202, respectively) to obtain the OD450 values for each well. The group containing 0.2% DMSO medium was used as 0% inhibition or stimulation. The XLfit software was used to plot the compound inhibition or stimulation curve and calculate the corresponding IC50 or EC50.

The nature of data set [1]: In vivo pharmacokinetic experiment in rats. The following applies: male Sprague-Dawley rats, n = 3; for F: PO 5 mpk vs IV 1 mpk; for clearance / Vd / AUC(0-t) / Cmax: rat, plasma; for clearance / Vd: 1 mg/kg, IV 1 mpk; for Vd: read-out: VSS; for AUC(0-t) / Cmax: 5 mg/kg, PO 5 mpk. As to the method:
The compound to be tested was dissolved in 5% DMA+20% Solutol+75% Saline vehicle to prepare a 0.5 mg/mL administration solution.
2 mL/kg of the administration solution was administered through the intravenous injection (IV) at a dose of 1 mg/kg to three fed male Sprague-Dawley rats, respectively. Blood samples were collected at 0.083, 0.25, 0.5, 1, 2, 4, 8 and 24 hours after administration. 10 mL/kg of the administration solution was administered by gavage (PO) at a dose of 5 mg/kg to other three fed male Sprague-Dawley rats, respectively. Blood samples were collected at 0.25, 0.5, 1, 2, 4, 8 and 24 hours after administration.
The concentration of the compound to be tested in plasma was obtained with the LC-MS/MS quantitative analysis with an API-4500 mass spectrometer, and the limit of quantitation (LOQ) for the plasma was 1 ng/mL.

For data set [2], the system named is NCI-H929 human myeloma cells. The data set can be described thus: Inhibition of the proliferation of NCI-H929 cells (luminescent cell viability, CTG). The data set is classed as cell-based. The following applies: Homo sapiens, NCI-H929, 144 h, 6 days, CellTiter-Glo. The protocol:
The effect of the compounds of the present invention on the proliferation of NCI-H929 human myeloma cells was evaluated by using a luminescent cell viability test experiment.
The compound was dissolved and diluted to 5 mM in DMSO, and then serially diluted 4-fold in DMSO to a minimum concentration of 0.31 μM. Each concentration was further diluted 50-fold with RPMI 1640 medium (Thermo Fisher, Cat. No. 72400-047). If the IC50 value of the compound was relatively low, the initial concentration of the compound could be lowered.
NCI-H929 cells (Nanjing Cobioer, Cat. No. CBP60243) were cultured in RPMI 1640 complete medium [containing 10% FBS (GIBCO, Cat. No. 10099-141) and 100 units/mL penicillin-streptomycin (Thermo Fisher, Cat. No. 15140122)]. Cells (15000 cells/mL) were plated in 90 μL of the complete medium in a 96-well plate and cultured overnight, and then 10 μL of the compound solution was added into each well. The cells were cultured in an incubator at 37° C. and 5% CO2 for 6 days. Then the cell culture plate was taken out and balanced to room temperature according to the instruction of the CellTilter-Glo (CTG) kit (Promega, Cat. No. G7572). 50 μL CTG reagent was added for complete lysis, the plate was placed at room temperature for 10 minutes, and the luminescence signal was read with a microplate reader (EnVision, Perkin Elmer). The group containing 0.2% DMSO medium was used as 0% inhibition. The XLfit software was used to plot the compound inhibition curve and calculate the inhibitory IC50 value.
On the technique in general: In ATP-based viability assays light output follows the ATP content of the culture.

The structures appear in SMILES notation.

By EC50 is commonly meant the concentration that produces a half-maximal response. A word on the clearance: it is a measure of how efficiently the substance is removed, as volume per time. Low values mean a low capacity for elimination, high ones a high capacity for elimination. The AUC(0-t) is the area under the concentration-time curve up to a stated or last time point. Low readings indicate less exposure, high ones more exposure. In general, Cmax refers to the highest concentration seen after dosing. The IC50 is the midpoint of a concentration-inhibition curve. A high value points to weaker potency. Turning to `C[C@H](c1ccc(COc2cccc3c2CN([C@H]2CCC(=O)NC2=O)C3=O)cc1)N1CCN(c2ccc(C#N)cc2F)CC1` [Compound 6, 4-(4-((R)-1-(4-(((2-((S)-2,6-dioxopiperidin-3-yl)-1-oxoisoindolin-4-yl)oxy)methyl)phenyl)ethyl)piperazin-1-yl)-3-fluorobenzonitrile], in the data set on IL-2, the response was half-maximal at 2.3 nM (EC50). In data set [1], the F was found to be 14%, the clearance was 1 mL/min/kg, the Vd turned out to be 0.27 L/kg and the AUC(0-t) came to 11800 ng·h/mL. In addition, the Cmax in data set [1] came to 1800 ng/mL. In addition, 0.1 nM corresponded to half-maximal inhibition in data set [2] (IC50).

With `C[C@H](c1ccc(COc2cccc3c2CN([C@H]2CCC(=O)NC2=O)C3=O)cc1)N1CCN(c2ccc(C#N)cn2)CC1` [Compound 16, 6-(4-((R)-1-(4-(((2-((S)-2,6-dioxopiperidin-3-yl)-1-oxoisoindolin-4-yl)oxy)methyl)phenyl)-ethyl)piperazin-1-yl)nicotinonitrile], a half-maximal response in the data set with IL-2 (EC50) required 5.5 nM. For the same molecule, in data set [1], the F was found to be 27%, the clearance is 5.2 mL/min/kg, the Vd came out at 0.56 L/kg and the AUC(0-t) was 4280 ng·h/mL. For the same molecule, in data set [1], the Cmax was found to be 555 ng/mL. Further, 0.1 nM corresponded to half-maximal inhibition in data set [2] (IC50).

In the data set on IL-2, `C[C@H](c1ccc(COc2cccc3c2CN([C@H]2CCC(=O)NC2=O)C3=O)cc1)N1CCN(c2ccc(C#N)nc2)CC1` [Compound 21, 5-(4-((R)-1-(4-(((2-((S)-2,6-dioxopiperidin-3-yl)-1-oxoisoindolin-4-yl)oxy)methyl)phenyl)ethyl)piperazin-1-yl)-2-cyanopyridine] displayed an EC50 of 3.8 nM. In addition, in data set [1], the F is on record as 18%, the clearance came out at 14 mL/min/kg, the Vd was 0.65 L/kg and the AUC(0-t) was 1010 ng·h/mL. Also, the maximum concentration (Cmax) in data set [1] amounted to 318 ng/mL. In data set [2], this molecule showed an IC50 of 0.04 nM.

The molecule `C[C@H](c1ccc(COc2cccc3c2CN([C@H]2CCC(=O)NC2=O)C3=O)cc1)N1CCN(c2ncc(C#N)cc2F)CC1` [Compound 22, 6-(4-((R)-1-(4-(((2-((S)-2,6-dioxopiperidin-3-yl)-1-oxoisoindolin-4-yl)oxy)methyl)phenyl)-ethyl)piperazin-1-yl)-5-fluoronicotinonitrile] yielded an EC50 with IL-2 of 26 nM. In data set [1], the F came out at 30%, the clearance was 2.2 mL/min/kg, the Vd stood at 0.36 L/kg and the AUC(0-t) was 13000 ng·h/mL. In data set [1], this molecule returned a peak concentration (Cmax) of 1440 ng/mL. This molecule gave an IC50 in data set [2] of 0.6 nM.

Values taken from patent US20230271933A1, “HETEROCYCLIC IMMUNOMODULATOR” (Beijing Innocare Pharma Tech Co., Ltd., priority 2020, published 2023).
